Data as given in patent US20020061888A1, “Combination therapy for the prophylaxis and treatment of hyperlipidemic conditions and disorders” (priority 2000, published 2002).

Assays:
Type in all cases: in vivo
[1] = system: Male beagle dogs; test: Fecal bile acid concentration in beagle dogs (enzymatic 3α-hydroxysteroid dehydrogenase assay of fecal extracts); settings: for FECAL BILE ACID CONCENTRATION: n = 6; for % change in fecal bile acid: Week 2, footnote: vs pretreatment, text b128: vs vehicle
Description: Male beagle dogs (9-10 kg) obtained from Marshall farms were fed a normal chow diet once a day for a two hour interval and given water ad libitum. Prior to initiating treatment, the dogs were weighed and blood samples were drawn from the cephalic vein of each dog following an overnight fast to evaluate pretreatment serum total cholesterol levels at the start of the study. […] All doses were administered in gelatin capsules per os to each dog between 9:00-9:30 a.m. prior to feeding. All animals were fed between 9:30-10:00 a.m. and were allowed two hours to eat, at which time any remaining food was removed. […] Three consecutive 24 hour fecal samples were collected for each group during the last 72 hours of each week and used to measure the concentration of fecal biles acids excreted during that time period.
Fecal samples were collected to determine the fecal bile acid (“FBA”) concentration for each animal. Three consecutive 24 hour fecal samples were collected between 8:00 a.m. and 9:00 a.m. each day, prior to dosing and feeding, during the last 72 hour period of each week. The separate daily collections from each dog were weighed, combined and homogenized with distilled water in a food processor to generate a homogeneous slurry. A 1.4 g sample of fecal homogenate was extracted with 2.6 mL of a solution containing tertiary butanol:distilled water in the ratio of 2:0.6 (final concentration of 50% tertiary butanol v/v distilled water) for 45 minutes in a 37° C. water bath and centrifuged for 13 minutes at 2000 x g. The concentration of bile acids (μmoles/gram homogenate) was determined using a 96-well enzymatic assay system described in van der Meer et al., “t-Butanol Extraction of Feces: A Rapid Procedure For Enzymic Determination Of Fecal Bile Acids”, Cholesterol, Metabolism in Health and Disease: Studies in the Netherlands, edited by Beynen, et al., Ponsen and Looyen, Wageningen, 1985; and Turley et al., “Re-evaluation of the 3 Alpha-Hydroxysteroid Dehydrogenase Assay For Total Bile Acids In Bile”, J. Lipid Research, 19:924-928, 1978.
A 20 μL aliquot of each fecal extract was added to each of two sets of triplicate wells in a 96-well assay plate. A standardized sodium taurocholate solution and a standardized fecal extract solution (previously made from pooled samples and characterized for its bile acid concentration) were also analyzed for assay quality control. A standard curve of five points containing 30-540 nmoles/well was generated by serial dilutions of an initial 20 μL aliquot of 90 mM sodium taurocholate. A 230 μL aliquot of a reaction mixture containing 1M hydrazine hydrate, 0.1 M pyrophosphate and 0.46 mg/ml NAD was added to each well. Subsequently, a 50 μL aliquot of either 3α-hydroxysteroid dehydrogenase (“HSD”) enzyme (0.8 units/mL) or assay buffer (0.1 M sodium pyrophosphate) was then added to one each of the two sets of triplicates. Following 60 minutes of incubation at room temperature, the optical density at 340 nm was measured and the mean of each set of triplicate samples was calculated. The difference in optical density with and without HSD enzyme was used to determine the bile acid concentration (mM) of each sample based on the sodium taurocholate standard curve. The bile acid concentration of the extract (μmoles/gram homogenate), the total weight of the fecal homogenate (grams) and the body weight of the dogs (kg) were used to calculate the corresponding fecal bile acid concentration in μtmoles/kg/day for each animal.
All reagents used for the assay were obtained from Sigma Chemical Co., St. Louis, Mo. (HSD enzyme—catalog # H-1506; NAD—catalog # N1636; sodium taurocholate—catalog # T-4009).

[2] = system: Male beagle dogs; test: Serum triglyceride in beagle dogs; settings: n = 6
Description: Following this initial four week dose-ranging study, dogs from the two groups receiving 10 mg/kg/day pravastatin (a.m. and p.m. dosing groups) were randomized into two new treatment groups based on serum total cholesterol levels to initiate the combination treatment study. […] Dosing continued in this manner for an additional four weeks (Weeks 5-8) with blood and 48-hour fecal samples collected at the end of each week for serum lipid measurements and fecal bile acid determinations, respectively. […] At the end of this three-week period, pravastatin dosing and all empty capsule dosing were discontinued and blood samples were collected weekly for a final three weeks (weeks 12-14) to monitor the return of serum total cholesterol levels back to baseline.
Blood was collected from the cephalic vein of each dog into serum separator tubes. The blood was centrifuged at 900×g for 20 minutes at room temperature and the serum decanted. All analyses were performed on a Cobas Mira Clinical Analyzer System (Roche Diagnostic Systems, Branchburg, N.J.) using Roche Diagnostic reagents for enzymatic determinations of serum cholesterol and triglycerides. Commercial calibrator and quality control materials were analyzed with each run to verify assay accuracy and precision. A two-tailed, paired Students t-test was used to determine the statistical significance of changes in total serum cholesterol in treated animals compared to their pretreatment values. A two-sample, two-tailed unequal variance Students t-test was used to determine serum total cholesterol and triglyceride changes in the combination therapy group compared to the monotherapy groups. […]

[3] = system: Male beagle dogs; test: Serum total cholesterol in beagle dogs (serum lipid measurements); settings: pravastatin 16.0 mg/kg/day, Week 3, mean ± SEM, n = 6
[4] = compound A-5 monotherapy 4.0 mg/kg/day, dosed Weeks 5-8, Week 5, mean ± SEM
[5] = compound A-5 monotherapy 4.0 mg/kg/day, dosed Weeks 5-8, Week 6, mean ± SEM
[6] = compound A-5 monotherapy 4.0 mg/kg/day, dosed Weeks 5-8, Week 7, mean ± SEM
[7] = compound A-5 monotherapy 4.0 mg/kg/day, dosed Weeks 5-8, Week 8, mean ± SEM
[8] = compound A-5 monotherapy group, dosing terminated after Week 8, Week 9, mean ± SEM
[9] = compound A-5 monotherapy group, dosing terminated after Week 8, Week 10, mean ± SEM

CCCCC1(CC)CS(=O)(=O)c2ccc(N(C)C)cc2[C@@H](c2cccc(OCc3ccc(C[N+]45CCN(CC4)CC5)cc3)c2)[C@H]1O.[Cl-] (stereo partly drawn) [Compound A-5]
return of fecal bile acid levels to their pretreatment levels after the last day of compound A-5 dosing ([1]; Example 3, 4.0 mg/kg/day compound A-5 for four weeks, alone or with 10 mg/kg/day pravastatin): within one week | FECAL BILE ACID CONCENTRATION ([1]; compound A-5 0.22 mg/kg/day per os, Week 1, mean ± SEM): 89 ± 9^3 μmol/day/kg | % change in fecal bile acid ([1]; compound A-5 0.22 mg/kg/day per os): (270) % | FECAL BILE ACID CONCENTRATION ([1]; compound A-5 0.22 mg/kg/day per os, Week 2, mean ± SEM): 100 ± 11^3 μmol/day/kg | FECAL BILE ACID CONCENTRATION ([1]; compound A-5 0.22 mg/kg/day per os, Week 3, mean ± SEM): 81 ± 7^3 μmol/day/kg | FECAL BILE ACID CONCENTRATION ([1]; compound A-5 0.66 mg/kg/day per os, Week 1, mean ± SEM): 134 ± 19^3 μmol/day/kg | % change in fecal bile acid ([1]; compound A-5 0.66 mg/kg/day per os): (396) % | FECAL BILE ACID CONCENTRATION ([1]; compound A-5 0.66 mg/kg/day per os, Week 2, mean ± SEM): 134 ± 16^3 μmol/day/kg | FECAL BILE ACID CONCENTRATION ([1]; compound A-5 0.66 mg/kg/day per os, Week 3, mean ± SEM): 126 ± 12^3 μmol/day/kg | FECAL BILE ACID CONCENTRATION ([1]; compound A-5 2.0 mg/kg/day per os, Week 1, mean ± SEM): 168 ± 13^3 μmol/day/kg | % change in fecal bile acid ([1]; compound A-5 2.0 mg/kg/day per os): (411) % | FECAL BILE ACID CONCENTRATION ([1]; compound A-5 2.0 mg/kg/day per os, Week 2, mean ± SEM): 138 ± 12^3 μmol/day/kg | FECAL BILE ACID CONCENTRATION ([1]; compound A-5 2.0 mg/kg/day per os, Week 3, mean ± SEM): 164 ± 11^3 μmol/day/kg | FECAL BILE ACID CONCENTRATION ([1]; compound A-5 6.0 mg/kg/day per os, Week 1, mean ± SEM): 190 ± 18^3 μmol/day/kg | % change in fecal bile acid ([1]; compound A-5 6.0 mg/kg/day per os): (674) % | FECAL BILE ACID CONCENTRATION ([1]; compound A-5 6.0 mg/kg/day per os, Week 2, mean ± SEM): 209 ± 27^3 μmol/day/kg | FECAL BILE ACID CONCENTRATION ([1]; compound A-5 6.0 mg/kg/day per os, Week 3, mean ± SEM): 179 ± 16^3 μmol/day/kg | % change in fecal bile acid concentration from Week 0 ([1]; compound A-5 monotherapy 4.0 mg/kg/day, dosed Weeks 5-8, Week 5): (+293)^4% | FECAL BILE ACID CONCENTRATION [1, 4]: 106 ± 13^3 μmol/kg/day | % change in fecal bile acid concentration from Week 0 ([1]; compound A-5 monotherapy 4.0 mg/kg/day, dosed Weeks 5-8, Week 6): (+374) % | FECAL BILE ACID CONCENTRATION [1, 5]: 128 ± 17^3 μmol/kg/day | % change in fecal bile acid concentration from Week 0 ([1]; compound A-5 monotherapy 4.0 mg/kg/day, dosed Weeks 5-8, Week 7): (+578) % | FECAL BILE ACID CONCENTRATION [1, 6]: 183 ± 39^3 μmol/kg/day | FECAL BILE ACID CONCENTRATION [1, 7]: 109 ± 23^3 μmol/kg/day | % change in fecal bile acid concentration from Week 0 ([1]; compound A-5 monotherapy group, dosing terminated after Week 8, Week 9): (+48) % | FECAL BILE ACID CONCENTRATION [1, 8]: 40 ± 6 µmol/kg/day | % change in fecal bile acid concentration from Week 0 ([1]; compound A-5 monotherapy group, dosing terminated after Week 8, Week 10): (+59) % | FECAL BILE ACID CONCENTRATION [1, 9]: 43 ± 4 µmol/kg/day | TOTAL SERUM TRIGLYCERIDE [2, 4]: 37 ± 3 mg/dL | TOTAL SERUM TRIGLYCERIDE [2, 5]: 32 ± 3 mg/dL | TOTAL SERUM TRIGLYCERIDE [2, 6]: 36 ± 3 mg/dL | TOTAL SERUM TRIGLYCERIDE [2, 7]: 34 ± 3 mg/dL | TOTAL SERUM TRIGLYCERIDE [2, 8]: 39 ± 3 mg/dL | TOTAL SERUM TRIGLYCERIDE [2, 9]: 42 ± 4 mg/dL | TOTAL SERUM TRIGLYCERIDE ([2]; compound A-5 monotherapy group, dosing terminated after Week 8, Week 11, mean ± SEM): 34 ± 3 mg/dL | TOTAL SERUM TRIGLYCERIDE ([2]; compound A-5 monotherapy group, dosing terminated after Week 8, Week 12, mean ± SEM): 51 ± 5 mg/dL | TOTAL SERUM TRIGLYCERIDE ([2]; compound A-5 monotherapy group, dosing terminated after Week 8, Week 13, mean ± SEM): 46 ± 3 mg/dL

CC[C@H](C)C(=O)O[C@H]1C[C@H](O)C=C2C=C[C@H](C)[C@H](CC[C@@H](O)C[C@@H](O)CC(=O)O)[C@H]21 [pravastatin, Pravastatin]
% change in fecal bile acid concentration from Week 0 ([1]; pravastatin monotherapy 10 mg/kg/day, Week 5): (−54) % | FECAL BILE ACID CONCENTRATION ([1]; pravastatin monotherapy 10 mg/kg/day, Week 5, mean ± SEM): 17 ± 5 µmol/kg/day | % change in fecal bile acid concentration from Week 0 ([1]; pravastatin monotherapy 10 mg/kg/day, Week 6): (−38) % | FECAL BILE ACID CONCENTRATION ([1]; pravastatin monotherapy 10 mg/kg/day, Week 6, mean ± SEM): 23 ± 7 µmol/kg/day | % change in fecal bile acid concentration from Week 0 ([1]; pravastatin monotherapy 10 mg/kg/day, Week 7): (−19) % | FECAL BILE ACID CONCENTRATION ([1]; pravastatin monotherapy 10 mg/kg/day, Week 7, mean ± SEM): 30 ± 6 µmol/kg/day | % change in fecal bile acid concentration from Week 0 ([1]; pravastatin monotherapy 10 mg/kg/day, Week 8): (−30) % | FECAL BILE ACID CONCENTRATION ([1]; pravastatin monotherapy 10 mg/kg/day, Week 8, mean ± SEM): 26 ± 9 µmol/kg/day | % change in fecal bile acid concentration from Week 0 ([1]; pravastatin monotherapy 10 mg/kg/day, Week 9): (−24) % | FECAL BILE ACID CONCENTRATION ([1]; pravastatin monotherapy 10 mg/kg/day, Week 9, mean ± SEM): 28 ± 5 µmol/kg/day | % change in fecal bile acid concentration from Week 0 ([1]; pravastatin monotherapy 10 mg/kg/day, Week 10): (−24) % | FECAL BILE ACID CONCENTRATION ([1]; pravastatin monotherapy 10 mg/kg/day, Week 10, mean ± SEM): 28 ± 6 µmol/kg/day | TOTAL SERUM TRIGLYCERIDE ([2]; pravastatin monotherapy 10 mg/kg/day, dosed Weeks 1-11, Week 4, mean ± SEM): 30 ± 4 mg/dL | TOTAL SERUM TRIGLYCERIDE ([2]; pravastatin monotherapy 10 mg/kg/day, dosed Weeks 1-11, Week 5, mean ± SEM): 34 ± 3 mg/dL | TOTAL SERUM TRIGLYCERIDE ([2]; pravastatin monotherapy 10 mg/kg/day, dosed Weeks 1-11, Week 6, mean ± SEM): 35 ± 4 mg/dL | TOTAL SERUM TRIGLYCERIDE ([2]; pravastatin monotherapy 10 mg/kg/day, dosed Weeks 1-11, Week 7, mean ± SEM): 37 ± 3 mg/dL | TOTAL SERUM TRIGLYCERIDE ([2]; pravastatin monotherapy 10 mg/kg/day, dosed Weeks 1-11, Week 8, mean ± SEM): 38 ± 5 mg/dL | TOTAL SERUM TRIGLYCERIDE ([2]; pravastatin monotherapy 10 mg/kg/day, dosed Weeks 1-11, Week 9, mean ± SEM): 34 ± 2 mg/dL | TOTAL SERUM TRIGLYCERIDE ([2]; pravastatin monotherapy 10 mg/kg/day, dosed Weeks 1-11, Week 11, mean ± SEM): 33 ± 3 mg/dL | TOTAL SERUM TRIGLYCERIDE ([2]; pravastatin monotherapy group, dosing terminated after Week 11, Week 12, mean ± SEM): 46 ± 4 mg/dL | TOTAL SERUM TRIGLYCERIDE ([2]; pravastatin monotherapy group, dosing terminated after Week 11, Week 13, mean ± SEM): 44 ± 3 mg/dL | TOTAL SERUM TRIGLYCERIDE ([2]; pravastatin monotherapy group, dosing terminated after Week 11, Week 14, mean ± SEM): 40 ± 4 mg/dL | SERUM TOTAL CHOLESTEROL [3]: 134 ± 13^2 mg/dL
